Test systems include SK-OV-3; UO-31; NCI-H460; SK-MEL-2; Malme-3M; OVCAR-4; NCI-H23; OVCAR-3; 786-0; SNB-19; HOP-62; ACHN; BT-549; SW-620; PC-3; Hs-578T; T47D; M14; SK-MEL-5; A498.
What all share (assay): growth of human tumour cells (NCI), 48 h

The source of these data is ChEMBL document CHEMBL1201862, “PubChem BioAssay data set” (2004).

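96-well plates; 48 h exposure; 5 concentrations. Endpoints by linear interpolation between flanking doses. Not reached: highest tested concentration assigned. GI50 = concentration required for 50% inhibition of growth.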 Active and inactive are the calls of the source. Rule as the data show it: active = GI50 up to about 1.1 µM and inactive = higher. Bounds are passed on as bounds.

Take `Cc1cccc2nc3n(c12)C(=O)c1ccccc1-3`: the GI50 in the experiment with SK-OV-3, in the experiment on UO-31, in the experiment on NCI-H460, in the experiment with SK-MEL-2, with Malme-3M and in the experiment on OVCAR-4 was > 100 µM (inactive) in each case. Besides, the GI50 in the experiment on NCI-H23, with OVCAR-3, in the experiment with 786-0, in the experiment on SNB-19, with HOP-62 and with ACHN was > 100 µM (inactive) throughout. Further, the GI50 in the experiment with BT-549, in the experiment with SW-620 and with PC-3 was > 100 µM (inactive) each time.
As for `CCOC(=O)Cn1c(=O)c2nc(SC)sc2n(-c2ccccc2)c1=S`, the GI50 in the experiment on Hs-578T was 4.18 µM (inactive); in the experiment on SK-OV-3 it was 22.7 µM (inactive); with UO-31, 4.43 µM (inactive); in the experiment with NCI-H460, 30.1 µM (inactive); in the experiment with SK-MEL-2, 17.5 µM (inactive); in the experiment with Malme-3M it was 18.8 µM (inactive). Moreover, the GI50 with OVCAR-4 was 15.3 µM (inactive); with T47D, 40.8 µM (inactive); in the experiment with NCI-H23, 36.5 µM (inactive); in the experiment with OVCAR-3, 26.6 µM (inactive); with 786-0, 12.1 µM (inactive); in the experiment with M14, 32.5 µM (inactive). Besides, the GI50 was 13.4 µM (inactive) in the experiment with SNB-19; 19.9 µM (inactive) with HOP-62; 13.9 µM (inactive) with ACHN; 50.4 µM (inactive) in the experiment with SW-620; 26.2 µM (inactive) in the experiment with PC-3; > 100 µM (inactive) in the experiment on SK-MEL-5.
As to `COc1ccc2c(c1)CCCN1CCc3ccccc3C21` (stereo not given), the GI50 with Hs-578T is 35.7 µM (inactive); with SK-OV-3 it was 52.2 µM (inactive); in the experiment on NCI-H460, 56.1 µM (inactive); with SK-MEL-2, 40.5 µM (inactive); in the experiment with A498, 55.3 µM (inactive); in the experiment with Malme-3M, 37.2 µM (inactive). The GI50 in the experiment with OVCAR-4 is > 100 µM (inactive); with T47D, 77.3 µM (inactive); with NCI-H23 it was 35.7 µM (inactive); in the experiment with OVCAR-3, 30.2 µM (inactive); in the experiment with 786-0, 26.6 µM (inactive); with M14, 20.4 µM (inactive). Also, the GI50 in the experiment with SNB-19 is 42.6 µM (inactive); with HOP-62, 37.9 µM (inactive); in the experiment on ACHN, 47.3 µM (inactive); with SW-620 it was 67.8 µM (inactive); with PC-3, 41.5 µM (inactive); in the experiment with SK-MEL-5 it was 33.8 µM (inactive).
As to `CCCCCCCCCCCCCP(=O)(NCC(N)=O)OCC` (stereo not given), the GI50 with SK-OV-3 is 21.3 µM (inactive); with UO-31, 13.6 µM (inactive); with NCI-H460, 20.6 µM (inactive); in the experiment on SK-MEL-2, 16.3 µM (inactive); in the experiment with A498, 35.6 µM (inactive); with Malme-3M it was 17.7 µM (inactive). The GI50 was 16.7 µM (inactive) with OVCAR-4; 24.3 µM (inactive) in the experiment with NCI-H23; 15.3 µM (inactive) with OVCAR-3; 15.4 µM (inactive) in the experiment on 786-0; 16.9 µM (inactive) in the experiment on M14; 18.7 µM (inactive) in the experiment with SNB-19. Further, the GI50 was 17.3 µM (inactive) with HOP-62, 21.8 µM (inactive) in the experiment on ACHN, 19.9 µM (inactive) in the experiment with SW-620 and 18.5 µM (inactive) with SK-MEL-5.
As for `CC(=O)CC(=O)NC=O`, the GI50 in the experiment with SK-OV-3, in the experiment with UO-31, in the experiment with NCI-H460, in the experiment with SK-MEL-2, in the experiment on A498 and with Malme-3M was > 100 µM (inactive) throughout. The GI50 with OVCAR-4, with NCI-H23, with OVCAR-3, in the experiment with 786-0, in the experiment with M14 and in the experiment with SNB-19 was > 100 µM (inactive) in each case. The GI50 with HOP-62, in the experiment with ACHN, in the experiment with SW-620 and with SK-MEL-5 was > 100 µM (inactive) each time.
With `COC1=C(C(=O)OC(C)(C)C)[C@]2(C)C(C(=O)OC(C)(C)C)C(OC)=C(C(=O)OC(C)(C)C)[C@]2(C)C1C(=O)OC(C)(C)C` (stereo not given in full), the GI50 is > 100 µM (inactive) with SK-OV-3; 85.3 µM (inactive) with UO-31; 78.2 µM (inactive) in the experiment with NCI-H460; > 100 µM (inactive) with SK-MEL-2; > 100 µM (inactive) with A498; > 100 µM (inactive) with Malme-3M. The GI50 in the experiment on OVCAR-4 is 97.7 µM (inactive); in the experiment with NCI-H23, > 100 µM (inactive); in the experiment on OVCAR-3, 29.3 µM (inactive); in the experiment with 786-0 it was > 100 µM (inactive); in the experiment on M14, 46.9 µM (inactive); with SNB-19, > 100 µM (inactive). The GI50 in the experiment on HOP-62 is > 100 µM (inactive); in the experiment on ACHN, 69.3 µM (inactive); in the experiment with SW-620, > 100 µM (inactive); in the experiment with SK-MEL-5, 35.1 µM (inactive).
Regarding `CC12C(=O)N(CCN)C(=O)C1C1c3ccccc3C2c2ccccc21` (stereo not given), the GI50 in the experiment on SK-OV-3, in the experiment with UO-31, with NCI-H460, in the experiment with SK-MEL-2, with A498 and in the experiment with Malme-3M was > 100 µM (inactive) in each case. Also, the GI50 in the experiment on OVCAR-4, in the experiment on NCI-H23, in the experiment on OVCAR-3, in the experiment with 786-0, in the experiment with M14 and with SNB-19 was > 100 µM (inactive) throughout. The GI50 in the experiment with HOP-62, in the experiment with ACHN, in the experiment on SW-620 and in the experiment with SK-MEL-5 was > 100 µM (inactive) each time.
Turning to `COc1ccc(/C=C2\N/C(=N/N)N=C2Cl)cc1`, the GI50 in the experiment on Hs-578T, in the experiment on SK-OV-3, with UO-31, in the experiment on SK-MEL-2, with A498 and in the experiment with Malme-3M was > 100 µM (inactive) each time. Also, the GI50 in the experiment with OVCAR-4, with T47D, with NCI-H23, in the experiment on OVCAR-3, in the experiment with 786-0 and in the experiment with M14 was > 100 µM (inactive) in each case. In addition, the GI50 in the experiment on SNB-19, in the experiment with HOP-62, in the experiment on ACHN, in the experiment with SW-620, in the experiment with PC-3 and in the experiment on SK-MEL-5 was > 100 µM (inactive) each time.
For `Cn1c2ccccc2n2c(=O)c3c(c(C#N)c12)CCCC3`, the GI50 with SK-OV-3, with UO-31, with NCI-H460, with SK-MEL-2, in the experiment with A498 and with Malme-3M was > 100 µM (inactive) throughout. Further, the GI50 with OVCAR-4, with NCI-H23, with OVCAR-3, in the experiment on 786-0, in the experiment with M14 and in the experiment on SNB-19 was > 100 µM (inactive) each time. Moreover, the GI50 in the experiment with HOP-62, in the experiment on ACHN, with SW-620 and in the experiment on SK-MEL-5 was > 100 µM (inactive) each time.
Regarding `Cc1cc(Cl)ccc1NC1=NC(=O)C(CC(=O)Nc2ccc([N+](=O)[O-])cc2[N+](=O)[O-])S1` (stereo not given), the GI50 is 25.2 µM (inactive) in the experiment on SK-OV-3; 17.1 µM (inactive) with UO-31; 29.1 µM (inactive) in the experiment on NCI-H460; 20.5 µM (inactive) in the experiment with SK-MEL-2; 23.4 µM (inactive) with A498; 26.1 µM (inactive) with Malme-3M. Besides, the GI50 with OVCAR-4 was 19.2 µM (inactive); with NCI-H23, 20.9 µM (inactive); with OVCAR-3, 23.6 µM (inactive); with 786-0 it was 34.8 µM (inactive); in the experiment on M14 it was 24.2 µM (inactive); in the experiment with SNB-19, 26.9 µM (inactive). In addition, the GI50 in the experiment with HOP-62 is 31.6 µM (inactive); with ACHN, 25.1 µM (inactive); with SW-620 it was 32.9 µM (inactive); in the experiment with SK-MEL-5 it was 15.6 µM (inactive).
For the compound `CCOc1cc2c(=O)oc3c(OC)ccc4ccc(c1OC)c2c43`, the GI50 was 44.8 µM (inactive) in the experiment on Hs-578T; 25.1 µM (inactive) in the experiment with SK-OV-3; > 100 µM (inactive) in the experiment on UO-31; 25.1 µM (inactive) with NCI-H460; > 100 µM (inactive) with SK-MEL-2; > 100 µM (inactive) in the experiment with A498. Further, the GI50 in the experiment with Malme-3M is > 100 µM (inactive); in the experiment on OVCAR-4, 58.7 µM (inactive); with T47D, > 100 µM (inactive); in the experiment on NCI-H23, 73.5 µM (inactive); in the experiment with OVCAR-3, > 100 µM (inactive); in the experiment on 786-0, 36.5 µM (inactive). For the same compound, the GI50 is 45.3 µM (inactive) with M14; 59.2 µM (inactive) in the experiment on SNB-19; 46.5 µM (inactive) with HOP-62; 37.4 µM (inactive) in the experiment with ACHN; > 100 µM (inactive) in the experiment with SW-620; > 100 µM (inactive) in the experiment on PC-3. The GI50 in the experiment with SK-MEL-5 is > 100 µM (inactive).
On to `CCC1(O)C(=O)OCc2c1cc1n(c2=O)Cc2cc3ccc(CO)cc3nc2-1` (stereo not given), for which the GI50 in the experiment on SK-OV-3 was 2.26 µM (inactive); with UO-31 it was 3.81 µM (inactive); in the experiment on NCI-H460, 1.09 µM (active); in the experiment with SK-MEL-2 it was 18 µM (inactive); in the experiment with A498 it was 7.82 µM (inactive); in the experiment with Malme-3M, 4.53 µM (inactive). The GI50 in the experiment with OVCAR-4 is 23.8 µM (inactive); in the experiment with NCI-H23 it was 2.07 µM (inactive); in the experiment with OVCAR-3, 4.55 µM (inactive); with 786-0 it was 1.99 µM (inactive); in the experiment on M14 it was 3.59 µM (inactive); in the experiment with SNB-19 it was 1.93 µM (inactive). For the same compound, the GI50 in the experiment with HOP-62 is 0.566 µM (active); in the experiment with ACHN, 2.86 µM (inactive); in the experiment on SW-620 it was 7.52 µM (inactive); in the experiment with SK-MEL-5, 3.08 µM (inactive).
